For one assay, the target named is T1, CK2 (Homo sapiens, UniProt P68400).
T1 construct: made in house; host or cells: Escherichia coli (CK2α)
The assay is described as follows: CK2 kinase assay with CK2β-independent peptide substrate […]. In kind it is biochemical. The procedure: The following peptide substrates were employed: a canonical CK2 peptide substrate […] phosphorylated equally by CK2α and CK2α2β2 (CK2β-independent peptide substrate), and […] exclusively phosphorylated by CK2α2β2 (CK2β-dependent peptide substrate)[4]. GST-Olig2-(1-177), was used as a CK2β-dependent protein substrate.
CK2 kinase assays were performed in a final assay volume of 18 μL containing 3 μL of compounds, 3 μL of CK2α (36 ng) and a mixture of 1 mM peptide substrate, 10 mM MgCl2, and 1 μCi [γ^32P]-ATP. Final concentration of ATP was 100 μM. Assays were performed under linear kinetic conditions for 5 min at room temperature before termination by the addition of 60 μL of 4% TCA. ^32P incorporation in peptide substrate was determined as previously described.
Fig. S6. […] (a) Dose-dependent inhibition of CK2. CK2α (40 nM) was incubated with increasing concentrations of compound 1 (●), 4 (π) or 6 (○) in the presence of 20 nM CK2β. CK2 activity was determined with a saturating concentration of CK2β-dependent peptide substrate. (b) Differential effects of 6 on the phosphorylation of CK2 peptide substrates. CK2α (40 nM) was incubated with increasing concentrations of 6 in the presence of 20 nM CK2β. CK2 activity was determined with a saturating concentration of CK2β-independent peptide substrate (?) or CK2β-dependent peptide substrate (○). […]

Assay [1] has as its system Akt phosphorylation at Ser129 in MCF10A cells. The assay is described as follows: Western blot of Akt Ser129 phosphorylation. In kind it is cell-based, human. To be noted: 48 h. The procedure:
Figure 5 Cellular effects of compounds 3, 4 and 6. MCF10A cells were incubated for 24 h with either DMSO or 30 μM TAT or 30 μM TAT-Pc or 25 μM 6 (a) or with increasing concentrations of 6 (b) or 3 (c). MCF10A cells were incubated for 48 h with either DMSO or with increasing concentrations of 3 or 6 (d). Cells were then lysed and analyzed by western blot with the indicated antibodies. Blot images are representative of at least three independent experiments. Uncropped blots are shown in Supplementary Fig. S16. (e) MDA-MB231 cells were treated with 40 μM 6 (⚬), 4 (▴) or 3 (X). (f) MDA-MB231 cells were treated for 30 h with increasing concentrations of 6 (⚬) or 4 (▴). Insert: cells were treated for 30 h with 80 μM 6 or 10 μM CX-4945. […] Cell death was automatically quantified from images captured every 3 h for the duration of the experiments using an Essen IncuCyte Zoom live-cell microscopy incubator. […]
Cells were lysed in RIPA buffer (10 mM Tris-HCl pH 7.4, 150 mM NaCl, 1% Triton X-100, 0.1% SDS, 0.5% DOC and 1 mM EDTA) containing both protease- and phosphatase-inhibitor cocktails (Sigma-Aldrich; P8340, P2850, P5726). Cell homogenates were quantified using BCA protein Assay kit (Thermo Scientific). […] Luminata Forte Western HRP substrate (Millipore) was added and membranes were read with Fusion Fx7 (PerkinElmer). […] Images were analyzed and band intensities were quantified using ImageJ software. […]

Assay [2] deals with T2, CK2 holoenzyme complexes in MCF10A cells (Homo sapiens, UniProt P68400).
T2 construct: endogenous in cells; host or cells: MCF10A
T2 sequence (P68400 whole entry, one chain of several): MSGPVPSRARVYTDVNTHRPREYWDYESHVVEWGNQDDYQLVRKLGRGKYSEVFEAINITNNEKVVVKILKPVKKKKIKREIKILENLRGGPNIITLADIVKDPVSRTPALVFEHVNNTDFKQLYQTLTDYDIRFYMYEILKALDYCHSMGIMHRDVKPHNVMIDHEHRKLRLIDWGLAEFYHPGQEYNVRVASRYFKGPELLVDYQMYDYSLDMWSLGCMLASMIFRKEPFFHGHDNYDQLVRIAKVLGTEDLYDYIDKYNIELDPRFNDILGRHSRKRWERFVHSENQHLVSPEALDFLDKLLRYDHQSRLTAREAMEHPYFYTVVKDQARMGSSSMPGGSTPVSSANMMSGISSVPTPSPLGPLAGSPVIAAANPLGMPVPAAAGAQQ
The assay is described as follows: In situ proximity ligation assay (PLA). In kind it is cell-based. The following applies: 50 μM, 3 h, DMSO control 16 ± 4. The procedure: In situ PLAs were performed using a Duolink kit (Olink Bioscience, Uppsala, Sweden) according to the manufacturer’s instructions with few modifications. MCF10A cells were fixed in 4% paraformaldehyde for 10 min. The cells were then permeabilized with 0.1% Triton in Tris-buffered saline (TBS; 50 mM Tris, pH 7.6, 150 mM NaCl) and incubated with 100 mM glycine in phosphate-buffered saline (137 mM NaCl, 2.7 mM KCl, 10 mM Na2 HPO4, and 1.8 mM KH2 PO4, pH 7.4) for 20 min. Permeabilized cells were incubated overnight at 4 °C with primary antibodies diluted as follows: mouse CK2α 1:250 and rabbit CK2β 1:50. Cells were washed three times in TBS with 0.05% Tween-20 for 5 min each with gentle agitation. Secondary antibodies conjugated with oligonucleotides, PLA probe anti-mouse MINUS and PLA probe anti-rabbit PLUS, were added to the cells and incubated for 90 min at 37 °C in a humidity chamber. Finally, after ligation and amplification steps, cells were counterstained with the DNA-binding dye Hoechst and Phaloïdine-488 for actin staining (Molecular Probes, Thermo Fisher Scientific, Courtaboeuf, France). Images were observed using a Zeiss Apotome microscope and analyzed using a Zen Pro imaging software (Zeiss, Oberkochen, Germany). Quantification was performed using the BlobFinder software (V3.2, Swedish University of Agricultural Sciences, Uppsala University)[67]. […]

Here are results for four molecules from PMC6828666, “Discovery of holoenzyme-disrupting chemicals as substrate-selective CK2 inhibitors” (Scientific Reports, 2019).

As usually defined, the inhibition is the drop in the measured response relative to a control, in per cent.

T1 sequence (P68400 whole entry): as the sequence (P68400 whole entry, one chain of several) above

Consider `COc1[nH]c2ccc(F)cc2c1C(=O)OCC1CCN(CCNS(C)(=O)=O)CC1` [Compound 1], for which the inhibition at 50 µM on CK2 (at 50 μM, read-out: inhibition of phosphorylation of canonical CK2β-independent peptide substrate) was determined as 15%. Turning to `CS(=O)(=O)NCCN1CCC(COC(=O)c2c[nH]c3ccccc23)CC1` [Compound 3, (1-(2-(Methylsulfonamido)ethyl)piperidin-4-yl)methyl 1H-indole-3-carboxylate], the “Akt phosphorylation at Ser129” value in assay [1] (100 µM) is “slight but not statistically significant alteration”. In the case of `O=C(OCC1CCN(CCNS(=O)(=O)c2ccccc2)CC1)c1c[nH]c2ccccc12` [Compound 4, (1-(2-(Phenylsulfonamido)ethyl)piperidin-4-yl)methyl 1H-indole-3-carboxylate], the “CK2 holoenzyme complexes (PLA dots)” value in assay [2] is on record as 8 ± 2 dots/cell. As for `COc1[nH]c2ccc(F)cc2c1C(=O)OCC1CCN(CCNS(=O)(=O)c2ccccc2)CC1.Cl` [Compound 6], the “Akt phosphorylation at Ser129” value in assay [1] (30 µM) is “slight but not statistically significant alteration”. For the same molecule, the “CK2 holoenzyme complexes (PLA dots)” value in assay [2] was 6 ± 2 dots/cell. For the same molecule, the “phosphorylation of the CK2β-independent peptide substrate” value at CK2 (increasing concentrations, 40 nM CK2α, 20 nM CK2β) is given as “only weakly affected”.
